Values quoted from earlier work in patent US20060099208A1, “Method of potentiating the therapeutic action of monoclonal and polyclonal antibodies” (priority 2004, published 2006).
“Also recorded” adds a separate entry of the source. Like-named read-outs stand apart in the source and are kept apart here.

Tests used:
tumor cells [1] = conditions: in-vitro; for killing of tumor cells: tumor cells and normal cells from American Type Culture Collection
skin papilloma = conditions: mice; pure fatty acid or fatty acid rich oils
ascitic tumor cells = conditions: experimental animals; pure fatty acid or fatty acid rich oils
hepatoma = conditions: rats; pure fatty acid or fatty acid rich oils
tumor cells [2] = conditions: PUFA combined with anti-cancer drug
tumor cells [3] = conditions: mixed culture, normal and tumor cells grown together

Compound | tumor cell proliferation (tumor cells [1]) | killing of tumor cells (tumor cells [1]) | growth of skin papilloma (skin papilloma) | growth of ascitic tumor cells in the peritoneum (ascitic tumor cells) | formation and growth of hepatoma (hepatoma) | cytotoxic action of anti-cancer drugs doxorubicin, vincristine and cis-platinum (tumor cells [2]) | survival of normal cells (normal cells; in-vitro) | selective tumoricidal action (tumor cells [3]) | survival of normal cells (normal cells) | side effects (colon cancer; human, in vivo) | extension of colon cancer patients' lives (colon cancer; in combination with chemotherapy, trial of 900 patients)
CCCCC/C=C\C/C=C\C/C=C\C/C=C\CCCC(=O)O [AA, arachidonic acid] | decrease tumor cell proliferation | only tumor cells were killed; also recorded: selectively kill the tumor cells | inhibit the growth | inhibit | inhibit | can be augmented | without having any significant action | effective to some extent | – | – | –
CCCCC/C=C\C/C=C\C/C=C\CCCCCCC(=O)O [DGLA, dihomo-GLA] | decrease tumor cell proliferation | only tumor cells were killed; also recorded: selectively kill the tumor cells | inhibit the growth | inhibit | inhibit | – | – | – | without having any significant action | – | –
CC/C=C\C/C=C\C/C=C\C/C=C\C/C=C\C/C=C\CCC(=O)O [DHA, docosahexaenoic acid] | – | – | – | – | – | can be augmented | without having any significant action | – | – | – | –
CC/C=C\C/C=C\C/C=C\C/C=C\C/C=C\CCCC(=O)O [EPA, eicosapentaenoic acid] | – | – | – | – | – | can be augmented | without having any significant action | – | – | – | –
CCCCC/C=C\C/C=C\C/C=C\CCCCC(=O)O [GLA, gamma-linolenic acid] | decrease tumor cell proliferation | only tumor cells were killed; also recorded: selectively kill the tumor cells | – | inhibit | inhibit | can be augmented | without having any significant action | – | – | – | –
Avastin: humanized monoclonal antibody to VEGF developed by Genentech | – | – | – | – | – | – | – | – | – | many side effects | 5 months
